Measurements from BindingDB's records for doi:10.1016/j.bmcl.2008.03.027 (Scripps Florida, 2008).

target: Steroidogenic factor 1 (Homo sapiens, UniProt Q13285); assay: Transactivation Cell-Based Assay
Description: The assay was to monitor the SF-1 activation state via co-transfection of CHO-K1 cells with a plasmid encoding a Gal4-SF-1 chimerical transcription factor, pGal4DBD-SF-1-LBD, and a second plasmid driving luciferase expression under control of 5 multimerized Gal4 binding sites. The assay began by dispensing transfected cell suspension to each well (4,000 cells / well) of a white solid-bottom 1536-well plate. One hour after seeding, cells were treated with test compounds or DMSO alone (high control). The -NR cells (not co-transfected with nuclear receptor) were treated with DMSO (low control). After incubation, the luciferase assay was performed, and light emission was measured for 30 seconds with the ViewLux reader (PerkinElmer, Turku, Finland). Activity of each compound was calculated using the equation: Percent inhibition of compound=100 x (1-(test well-low control)/ (high control-low control)) EC50/IC50 is the concentration of test compound to exert 50% inhibition.

Sequence of Steroidogenic factor 1 (Q13285 whole entry, the tested form may be a part): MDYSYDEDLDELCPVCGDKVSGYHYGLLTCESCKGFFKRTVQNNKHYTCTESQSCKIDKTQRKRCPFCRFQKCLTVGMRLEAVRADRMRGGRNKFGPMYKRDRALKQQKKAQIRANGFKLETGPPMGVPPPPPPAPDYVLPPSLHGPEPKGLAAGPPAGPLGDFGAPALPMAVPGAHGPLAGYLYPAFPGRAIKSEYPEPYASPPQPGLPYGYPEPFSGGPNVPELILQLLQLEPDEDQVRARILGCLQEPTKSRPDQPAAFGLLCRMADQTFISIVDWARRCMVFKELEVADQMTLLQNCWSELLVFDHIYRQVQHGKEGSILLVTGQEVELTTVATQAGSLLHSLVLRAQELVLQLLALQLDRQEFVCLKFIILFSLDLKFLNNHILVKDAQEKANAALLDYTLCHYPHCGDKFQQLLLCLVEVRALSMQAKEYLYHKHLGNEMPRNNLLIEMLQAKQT

SMILES | EC50 [nM]
CCOC(=O)C(C)Oc1cccc2c(=O)n(CC(=O)Nc3ccc(OC(F)(F)F)cc3)ccc12 (stereo unspecified) [ethyl 2-{[1-oxo-2-({[4-(trifluoromethoxy)phenyl]carbamoyl}methyl)-1,2-dihydroisoquinolin-5-yl]oxy}propanoate] | 200
CCOC(=O)C(C)Oc1cccc2c(=O)n(CC(=O)NCCc3ccccc3)ccc12 (stereo unspecified) [ethyl 2-[(1-oxo-2-{[(2-phenylethyl)carbamoyl]methyl}-1,2-dihydroisoquinolin-5-yl)oxy]propanoate] | 360
CCCCOc1cccc2c(=O)n(CC(=O)Nc3ccc4c(c3)OCCO4)ccc12 [2-(5-butoxy-1-oxo-1,2-dihydroisoquinolin-2-yl)-N-(2,3-dihydro-1,4-benzodioxin-6-yl)acetamide] | 13700
CCOC(=O)C(C)Oc1cccc2c(=O)n(CC(=O)NC3CCCCC3)ccc12 (stereo unspecified) [ethyl 2-({2-[(cyclohexylcarbamoyl)methyl]-1-oxo-1,2-dihydroisoquinolin-5-yl}oxy)propanoate] | 1770
CCOC(=O)C(C)Oc1cccc2c(=O)n(CC(=O)NCc3ccco3)ccc12 (stereo unspecified) [ethyl 2-[(2-{[(furan-2-ylmethyl)carbamoyl]methyl}-1-oxo-1,2-dihydroisoquinolin-5-yl)oxy]propanoate] | 4710
CCOC(=O)C(C)Oc1cccc2c(=O)n(CC(=O)NCc3ccc(F)cc3)ccc12 (stereo unspecified) [ethyl 2-{[2-({[(4-fluorophenyl)methyl]carbamoyl}methyl)-1-oxo-1,2-dihydroisoquinolin-5-yl]oxy}propanoate] | 680
CCCCNC(=O)Cn1ccc2c(OC(C)C(=O)OCC)cccc2c1=O (stereo unspecified) [ethyl 2-({2-[(butylcarbamoyl)methyl]-1-oxo-1,2-dihydroisoquinolin-5-yl}oxy)propanoate] | 9710
CCCCc1ccc(NC(=O)Cn2ccc3c(OC(C)C(=O)OCC)cccc3c2=O)cc1 (stereo unspecified) [ethyl 2-[(2-{[(4-butylphenyl)carbamoyl]methyl}-1-oxo-1,2-dihydroisoquinolin-5-yl)oxy]propanoate] | 360
CCOC(=O)C(C)Oc1cccc2c(=O)n(CC(=O)NCc3ccccc3)ccc12 (stereo unspecified) [ethyl 2-({2-[(benzylcarbamoyl)methyl]-1-oxo-1,2-dihydroisoquinolin-5-yl}oxy)propanoate] | 1060

Further lines, results first:

EC50 [nM] | SMILES
110 | CCOC(=O)C(C)Oc1cccc2c(=O)n(CC(=O)Nc3ccc(CC)cc3)ccc12 (stereo unspecified) [ethyl 2-[(2-{[(4-ethylphenyl)carbamoyl]methyl}-1-oxo-1,2-dihydroisoquinolin-5-yl)oxy]propanoate]
340 | CCOC(=O)C(C)Oc1cccc2c(=O)n(CC(=O)Nc3ccc(C)cc3)ccc12 (stereo unspecified) [ethyl 2-[(2-{[(4-methylphenyl)carbamoyl]methyl}-1-oxo-1,2-dihydroisoquinolin-5-yl)oxy]propanoate]
190 | CCOC(=O)C(C)Oc1cccc2c(=O)n(CC(=O)Nc3ccc(OCC)cc3)ccc12 (stereo unspecified) [ethyl 2-[(2-{[(4-ethoxyphenyl)carbamoyl]methyl}-1-oxo-1,2-dihydroisoquinolin-5-yl)oxy]propanoate]
530 | CCOC(=O)C(C)Oc1cccc2c(=O)n(CC(=O)Nc3ccc([N+](=O)[O-])cc3)ccc12 (stereo unspecified) [ethyl 2-[(2-{[(4-nitrophenyl)carbamoyl]methyl}-1-oxo-1,2-dihydroisoquinolin-5-yl)oxy]propanoate]
880 | CCCCC(C)Oc1cccc2c(=O)n(CC(=O)Nc3ccc4c(c3)OCCO4)ccc12 (stereo unspecified) [N-(2,3-dihydro-1,4-benzodioxin-6-yl)-2-[5-(hexan-2-yloxy)-1-oxo-1,2-dihydroisoquinolin-2-yl]acetamide]
3570 | CCOC(=O)C(C)Oc1cccc2c(=O)n(CC(=O)N(C)c3ccc4c(c3)OCCO4)ccc12 (stereo unspecified) [ethyl 2-[(2-{[2,3-dihydro-1,4-benzodioxin-6-yl(methyl)carbamoyl]methyl}-1-oxo-1,2-dihydroisoquinolin-5-yl)oxy]propanoate]
7860 | CCC(C)Oc1cccc2c(=O)n(CC(=O)Nc3ccc4c(c3)OCCO4)ccc12 (stereo unspecified) [2-[5-(butan-2-yloxy)-1-oxo-1,2-dihydroisoquinolin-2-yl]-N-(2,3-dihydro-1,4-benzodioxin-6-yl)acetamide]
200 | CCOC(=O)C(C)Oc1cccc2c(=O)n(CC(=O)Nc3ccc(OC)cc3)ccc12 (stereo unspecified) [ethyl 2-[(2-{[(4-methoxyphenyl)carbamoyl]methyl}-1-oxo-1,2-dihydroisoquinolin-5-yl)oxy]propanoate]
260 | CCOC(=O)C(C)Oc1cccc2c(=O)n(CC(=O)NCc3ccc4c(c3)OCO4)ccc12 (stereo unspecified) [ethyl 2-[(2-{[(2H-1,3-benzodioxol-5-ylmethyl)carbamoyl]methyl}-1-oxo-1,2-dihydroisoquinolin-5-yl)oxy]propanoate]
760 | CCOC(=O)C(C)Oc1cccc2c(=O)n(CC(=O)Nc3ccc4c(c3)OCCO4)ccc12 (stereo unspecified)
590 | CCOC(=O)C(C)(C)Oc1cccc2c(=O)n(CC(=O)Nc3ccc4c(c3)OCCO4)ccc12 [ethyl 2-({2-[(2,3-dihydro-1,4-benzodioxin-6-ylcarbamoyl)methyl]-1-oxo-1,2-dihydroisoquinolin-5-yl}oxy)-2-methylpropanoate]
8460 | CCOC(=O)C(C)Oc1cccc2c(=O)n(CCC(=O)Nc3ccc4c(c3)OCCO4)ccc12 (stereo unspecified) [ethyl 2-({2-[2-(2,3-dihydro-1,4-benzodioxin-6-ylcarbamoyl)ethyl]-1-oxo-1,2-dihydroisoquinolin-5-yl}oxy)propanoate]
